System: 782815-120-R-J1-PDC complex spheroid viability
Assay: Anticancer human tumor 782815-120-R-J1-PDC patient-derived colon adenocarcinoma cell line growth inhibition [RAS]
Conditions: for IC50: curve of first compound; for viability, T/C: stronger effect = lower value; active = viability on the fitted dose curve at most 10% of control; inactive = the rest
In short: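 Tumour cells grown as complex spheroids with HUVEC endothelial cells and mesenchymal stem cells, treated with RAS pathway inhibitor combinations. Each agent spans half-log steps from near clinical Cmax, or 10 microM where Cmax is unknown.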

[1] = second compound 0.000949 µM, first compound 0.00316 µM
[2] = second compound 0.000949 µM, first compound 0.01 µM
[3] = second compound 0.000949 µM, first compound 0.0316 µM
[4] = second compound 0.000949 µM, first compound 0.1 µM
[5] = second compound 0.003 µM, first compound 0.00316 µM
[6] = second compound 0.003 µM, first compound 0.01 µM
[7] = second compound 0.003 µM, first compound 0.0316 µM
[8] = second compound 0.003 µM, first compound 0.1 µM
[9] = second compound 0.00949 µM, first compound 0.00316 µM
[10] = second compound 0.00949 µM, first compound 0.01 µM
[11] = second compound 0.00949 µM, first compound 0.0316 µM
[12] = second compound 0.00949 µM, first compound 0.1 µM
[13] = second compound 0.03 µM, first compound 0.00316 µM
[14] = second compound 0.03 µM, first compound 0.01 µM
[15] = second compound 0.03 µM, first compound 0.0316 µM
[16] = second compound 0.03 µM, first compound 0.1 µM
[17] = second compound 0.0949 µM, first compound 0.00316 µM
[18] = second compound 0.0949 µM, first compound 0.01 µM
[19] = second compound 0.0949 µM, first compound 0.0316 µM
[20] = second compound 0.0949 µM, first compound 0.1 µM
[21] = second compound 0.3 µM, first compound 0.00316 µM
[22] = second compound 0.3 µM, first compound 0.01 µM
[23] = second compound 0.3 µM, first compound 0.0316 µM
[24] = second compound 0.3 µM, first compound 0.1 µM
[25] = second compound 0.000949 µM, first compound 0.316 µM
[26] = second compound 0.000949 µM, first compound 1 µM
[27] = second compound 0.000949 µM, first compound 3.16 µM
[28] = second compound 0.000949 µM, first compound 10 µM
[29] = second compound 0.003 µM, first compound 0.316 µM
[30] = second compound 0.003 µM, first compound 1 µM
[31] = second compound 0.003 µM, first compound 3.16 µM
[32] = second compound 0.003 µM, first compound 10 µM
[33] = second compound 0.00949 µM, first compound 0.316 µM
[34] = second compound 0.00949 µM, first compound 1 µM
[35] = second compound 0.00949 µM, first compound 3.16 µM
[36] = second compound 0.00949 µM, first compound 10 µM
[37] = second compound 0.03 µM, first compound 0.316 µM
[38] = second compound 0.03 µM, first compound 1 µM
[39] = second compound 0.03 µM, first compound 3.16 µM
[40] = second compound 0.03 µM, first compound 10 µM
[41] = second compound 0.0949 µM, first compound 0.316 µM
[42] = second compound 0.0949 µM, first compound 1 µM
[43] = second compound 0.0949 µM, first compound 3.16 µM
[44] = second compound 0.0949 µM, first compound 10 µM
[45] = second compound 0.3 µM, first compound 0.316 µM
[46] = second compound 0.3 µM, first compound 1 µM
[47] = second compound 0.3 µM, first compound 3.16 µM
[48] = second compound 0.3 µM, first compound 10 µM
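Note: spheroids exposed to compounds for 7 days before reading.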
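Throughout, for viability, T/C: 100% = DMSO vehicle control viability.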

CC(C)n1nc(-c2ccc3oc(N)nc3c2)c2c(N)ncnc21 + CCn1c(-c2cccnc2C(C)OC)c2c3cc(ccc31)N1CCOC(CC(NC(=O)C(C(C)C)N(C)C(=O)C3(F)CCN(C(=O)C#CC(C)(C)N(C)C)CC3)C(=O)N3CCCC(N3)C(=O)OCC(C)(C)C2)C1
> 0.1 µM: IC50 (second compound 0.000949 µM) | IC50 (second compound 0.003 µM) | IC50 (second compound 0.00949 µM) | IC50 (second compound 0.03 µM) | IC50 (second compound 0.0949 µM) | IC50 (second compound 0.3 µM)
inactive: viability, T/C (second compound 0.000949 µM, first compound 0.000316 µM) 88.2% | viability, T/C (second compound 0.000949 µM, first compound 0.001 µM) 90.7% | viability, T/C [1] 93% | viability, T/C [2] 88.2% | viability, T/C [3] 88.1% | viability, T/C [4] 76.3% | viability, T/C (second compound 0.003 µM, first compound 0.000316 µM) 91.5% | viability, T/C (second compound 0.003 µM, first compound 0.001 µM) 107% | viability, T/C [5] 91.7% | viability, T/C [6] 86.4% | viability, T/C [7] 84.8% | viability, T/C [8] 78.2% | viability, T/C (second compound 0.00949 µM, first compound 0.000316 µM) 94.8% | viability, T/C (second compound 0.00949 µM, first compound 0.001 µM) 102% | viability, T/C [9] 87.3% | viability, T/C [10] 94.3% | viability, T/C [11] 87.3% | viability, T/C [12] 70.7% | viability, T/C (second compound 0.03 µM, first compound 0.000316 µM) 87% | viability, T/C (second compound 0.03 µM, first compound 0.001 µM) 99.9% | viability, T/C [13] 94.1% | viability, T/C [14] 93.6% | viability, T/C [15] 106% | viability, T/C [16] 70.5% | viability, T/C (second compound 0.0949 µM, first compound 0.000316 µM) 87.7% | viability, T/C (second compound 0.0949 µM, first compound 0.001 µM) 95.2% | viability, T/C [17] 99.6% | viability, T/C [18] 83.7% | viability, T/C [19] 87.8% | viability, T/C [20] 78.8% | viability, T/C (second compound 0.3 µM, first compound 0.000316 µM) 90.9% | viability, T/C (second compound 0.3 µM, first compound 0.001 µM) 92.1% | viability, T/C [21] 86.1% | viability, T/C [22] 90.2% | viability, T/C [23] 90.6% | viability, T/C [24] 69.2%

CC1(O)CCCC1n1c(=O)c(C(F)F)cc2cnc(NC3CCN(S(C)(=O)=O)CC3)nc21 (stereo not drawn) + CCn1c(-c2cccnc2C(C)OC)c2c3cc(ccc31)N1CCOC(CC(NC(=O)C(C(C)C)N(C)C(=O)C3(F)CCN(C(=O)C#CC(C)(C)N(C)C)CC3)C(=O)N3CCCC(N3)C(=O)OCC(C)(C)C2)C1
4.5 µM: IC50 (second compound 0.000949 µM) | IC50 (second compound 0.03 µM)
4.86 µM: IC50 (second compound 0.0949 µM)
4.04 µM: IC50 (second compound 0.00949 µM)
inactive: viability, T/C [3] 61.7% | viability, T/C [4] 57.9% | viability, T/C [25] 65.8% | viability, T/C [26] 63% | viability, T/C [27] 61.5% | viability, T/C [28] 23.8% | viability, T/C [7] 63.4% | viability, T/C [8] 64.5% | viability, T/C [29] 63.5% | viability, T/C [30] 54.9% | viability, T/C [31] 65.2% | viability, T/C [32] 25.2% | viability, T/C [11] 57.6% | viability, T/C [12] 55.1% | viability, T/C [33] 64.3% | viability, T/C [34] 70.3% | viability, T/C [35] 55% | viability, T/C [36] 24% | viability, T/C [15] 69.3% | viability, T/C [16] 53.7% | viability, T/C [37] 69.1% | viability, T/C [38] 61.9% | viability, T/C [39] 61.3% | viability, T/C [40] 24.8% | viability, T/C [19] 67% | viability, T/C [20] 59.5% | viability, T/C [41] 70.3% | viability, T/C [42] 65.2% | viability, T/C [43] 71.1% | viability, T/C [44] 22% | viability, T/C [23] 66.7% | viability, T/C [24] 50.9% | viability, T/C [45] 58% | viability, T/C [46] 69.2% | viability, T/C [47] 61.5% | viability, T/C [48] 18.7%
4.29 µM: IC50 (second compound 0.3 µM)
4.63 µM: IC50 (second compound 0.003 µM)

CCN1CCN(Cc2ccc(Nc3ncc(F)c(-c4cc(F)c5nc(C)n(C(C)C)c5c4)n3)nc2)CC1 + CCn1c(-c2cccnc2C(C)OC)c2c3cc(ccc31)N1CCOC(CC(NC(=O)C(C(C)C)N(C)C(=O)C3(F)CCN(C(=O)C#CC(C)(C)N(C)C)CC3)C(=O)N3CCCC(N3)C(=O)OCC(C)(C)C2)C1
inactive: viability, T/C [1] 104% | viability, T/C [2] 99.3% | viability, T/C [3] 106% | viability, T/C [4] 92% | viability, T/C [25] 124% | viability, T/C [26] 125% | viability, T/C [5] 95% | viability, T/C [6] 97% | viability, T/C [7] 95.7% | viability, T/C [8] 98% | viability, T/C [29] 118% | viability, T/C [30] 121% | viability, T/C [9] 96.3% | viability, T/C [10] 99.6% | viability, T/C [11] 102% | viability, T/C [12] 103% | viability, T/C [33] 118% | viability, T/C [34] 127% | viability, T/C [13] 99.8% | viability, T/C [14] 109% | viability, T/C [15] 101% | viability, T/C [16] 102% | viability, T/C [37] 117% | viability, T/C [38] 127% | viability, T/C [17] 92.3% | viability, T/C [18] 95.5% | viability, T/C [19] 97% | viability, T/C [20] 102% | viability, T/C [41] 123% | viability, T/C [42] 134% | viability, T/C [21] 92.8% | viability, T/C [22] 91.6% | viability, T/C [23] 104% | viability, T/C [24] 110% | viability, T/C [45] 122% | viability, T/C [46] 122%
> 1 µM: IC50 (second compound 0.000949 µM) | IC50 (second compound 0.003 µM) | IC50 (second compound 0.00949 µM) | IC50 (second compound 0.03 µM) | IC50 (second compound 0.0949 µM) | IC50 (second compound 0.3 µM)

C[C@@H](NC(=O)c1ncnc(N)c1Cl)c1ncc(C(=O)Nc2cc(C(F)(F)F)c(Cl)cn2)s1 + CCn1c(-c2cccnc2C(C)OC)c2c3cc(ccc31)N1CCOC(CC(NC(=O)C(C(C)C)N(C)C(=O)C3(F)CCN(C(=O)C#CC(C)(C)N(C)C)CC3)C(=O)N3CCCC(N3)C(=O)OCC(C)(C)C2)C1
inactive: viability, T/C [3] 106% | viability, T/C [4] 103% | viability, T/C [25] 105% | viability, T/C [26] 79.2% | viability, T/C [27] 56.9% | viability, T/C [28] 56.3% | viability, T/C [7] 107% | viability, T/C [8] 100% | viability, T/C [29] 103% | viability, T/C [30] 65.6% | viability, T/C [31] 59.6% | viability, T/C [32] 51.9% | viability, T/C [11] 104% | viability, T/C [12] 108% | viability, T/C [33] 91.2% | viability, T/C [34] 83.1% | viability, T/C [35] 61.2% | viability, T/C [36] 55% | viability, T/C [15] 103% | viability, T/C [16] 110% | viability, T/C [37] 93.7% | viability, T/C [38] 79.2% | viability, T/C [39] 72.4% | viability, T/C [40] 53.3% | viability, T/C [19] 96.6% | viability, T/C [20] 101% | viability, T/C [41] 93.4% | viability, T/C [42] 78.4% | viability, T/C [43] 61.1% | viability, T/C [44] 49.4% | viability, T/C [23] 89.3% | viability, T/C [24] 95% | viability, T/C [45] 96.4% | viability, T/C [46] 84% | viability, T/C [47] 69.8% | viability, T/C [48] 52.5%
9.85 µM: IC50 (second compound 0.0949 µM)
> 10 µM: IC50 (second compound 0.000949 µM) | IC50 (second compound 0.003 µM) | IC50 (second compound 0.00949 µM) | IC50 (second compound 0.03 µM) | IC50 (second compound 0.3 µM)

From PubChem BioAssay AID2060887 (Molecular Pharmacology Branch, DTP, NCI, 2025)
